Among the data in patent US8362067B2, “3-aminoalkyl-1,3-dihydro-2H-indol-2-one derivatives, preparation thereof and therapeutic use thereof” (Sanofi, priority 2008, dated 2013) are melting point values, retold here.

Counter-ions that a name gives are not always drawn.

Take `CCOc1ccc(S(=O)(=O)N2C(=O)C(CCCN3CCC(O)CC3)(c3ccccc3F)c3cc(Cl)c(OC)cc32)cc1OC` (stereo not shown): the melting point came out at 102 °C.

In turn, `CCOc1ccc(S(=O)(=O)N2C(=O)C(CCCN3CCOCC3)(c3ccccc3F)c3cc(Cl)c(OC)cc32)cc1OC` (stereo not shown) showed a melting point of 153 °C.

`COc1cc2c(cc1C)C(CCCN1CCN(C)CC1)(c1ccccc1F)C(=O)N2S(=O)(=O)c1ccc(OC(C)C)cc1` (stereo not shown) gave a melting point of 70 °C.

Take `COc1cc2c(cc1F)C(CCCN1CCN(C)CC1)(c1ccccc1F)C(=O)N2S(=O)(=O)c1ccc(OC(C)C)cc1` (stereo not shown): the melting point is 72 °C.

Compound `COc1ccc(S(=O)(=O)N2C(=O)C(CCCN3CCN(C)CC3)(c3ccccc3F)c3cc(Cl)c(OC)cc32)c(OC)c1` (stereo not shown) came in with a melting point of 123 °C.

For `COc1cc2c(cc1OC)C(CCCN1CCN(C)CC1)(c1ccccc1F)C(=O)N2S(=O)(=O)c1ccc(OC(C)C)c(F)c1` (stereo not shown), the melting point turned out to be 74 °C.

Compound `COc1cc2c(cc1F)C(CCCN1CCN(C)CC1)(c1ccccc1F)C(=O)N2S(=O)(=O)c1ccc(OC(C)C)c(F)c1` (stereo not shown) came in with a melting point of 72 °C.

Compound `COc1ccc(S(=O)(=O)N2C(=O)C(CCCN3CCN(C)CC3)(c3ccccc3F)c3cc(OC)c(OC)cc32)cc1C` (stereo not shown) registered a melting point of 78 °C.

In turn, `COC(=O)c1ccc(F)c(C2(CCCN3CCN(C)CC3)C(=O)N(S(=O)(=O)c3ccc(OC(C)C)cc3)c3cc(OC)c(Cl)cc32)c1` (stereo not shown) showed a melting point of 100 °C.

The compound `COc1cc2c(cc1Cl)C(CCCN1CCN(C)CC1)(c1cc(CO)ccc1F)C(=O)N2S(=O)(=O)c1ccc(OC(C)C)cc1` (stereo not shown) showed a melting point of 97 °C.

Regarding `CCN(CC)C(=O)Nc1ccc(S(=O)(=O)N2C(=O)C(CCCN(C)C)(c3ccccc3F)c3cc(C)c(OC)cc32)cc1C` (stereo not shown), the melting point was 98 °C.

In the case of `CCN(CC)C(=O)Nc1ccc(S(=O)(=O)N2C(=O)C(CCCN(C)C)(c3ccccc3F)c3cc(C)c(OC)cc32)cc1F` (stereo not shown), the melting point turned out to be 82 °C.

With `COc1cc2c(cc1Cl)C(CCCN1CCN(C)CC1)(c1ccccc1F)C(=O)N2S(=O)(=O)c1ccc(OC)c(OC)c1` (stereo not shown), the melting point was found to be 90 °C.

In the case of `COc1cc2c(cc1Cl)C(CCCN1CCN(C)CC1)(c1ccccc1F)C(=O)N2S(=O)(=O)c1ccc(O)cc1` (stereo not shown), the melting point is 169 °C.

Regarding `COc1cc2c(cc1Cl)C(CCCN1CCN(C)CC1)(c1ccccc1F)C(=O)N2S(=O)(=O)c1ccc(OC(F)(F)C(F)F)cc1.Cl` (stereo not shown), the melting point worked out at 164 °C.

Compound `COc1ccc(S(=O)(=O)N2C(=O)C(CCCN3CCCCC3)(c3ccccc3F)c3cc(Cl)c(OC)cc32)c(OC)c1` (stereo not shown) displayed a melting point of 105 °C.

Regarding `CCCCOc1ccc(S(=O)(=O)N2C(=O)C(CCCN3CCN(C)CC3)(c3ccccc3F)c3cc(Cl)c(OC)cc32)cc1` (stereo not shown) (as salt: HCl), the melting point worked out at 156 °C.

`COc1cc2c(cc1Cl)C(CCCN1CCCN(C)CC1)(c1ccccc1F)C(=O)N2S(=O)(=O)c1ccc(OC(C)C)cc1` (stereo not shown) (as salt: HCl) came in with a melting point of 202 °C.

In turn, `COc1cc2c(cc1Cl)C(CCCCCN(C)C)(c1ccccc1F)C(=O)N2S(=O)(=O)c1ccc(OC(C)C)cc1` (stereo not shown) (as salt: HCl) displayed a melting point of 125 °C.

As to `COc1cc2c(cc1Cl)C(CCCCCN1CCCCC1)(c1ccccc1F)C(=O)N2S(=O)(=O)c1ccc(OC(C)C)cc1` (stereo not shown) (as salt: HCl), the melting point came to 203 °C.

In turn, `COc1cc2c(cc1Cl)C(CCCN1CC[C@H](N)C1)(c1ccccc1F)C(=O)N2S(=O)(=O)c1ccc(OC(C)C)cc1` (stereo partly drawn) (as salt: HCl) [Compound No. 5, 3-{3-[(3S)-3-aminopyrrolidin-1-yl]propyl}-5-chloro-3-(2-fluorophenyl)-1-[(4-isopropoxyphenyl)sulfonyl]-6-methoxy-1,3-dihydro-2H-indol-2-one] had a melting point of 206 °C.

`CCOc1ccc(S(=O)(=O)N2C(=O)C(CCCN3CC[C@@H](N)C3)(c3ccccc3F)c3cc(Cl)c(OC)cc32)cc1OC` (stereo partly drawn) (as salt: HCl) [Compound No. 6, 3-{3-[(3R)-3-aminopyrrolidin-1-yl]propyl}-5-chloro-1-[(4-ethoxy-3-methoxy-phenyl)sulfonyl]-3-(2-fluorophenyl)-6-methoxy-1,3-dihydro-2H-indol-2-one]: the melting point is 210 °C.

With `CCOc1ccc(S(=O)(=O)N2C(=O)C(CCCN3CC[C@H](N)C3)(c3ccccc3F)c3cc(Cl)c(OC)cc32)cc1OC` (stereo partly drawn) (as salt: HCl) [Compound No. 7, 3-{3-[(3S)-3-aminopyrrolidin-1-yl]propyl}-5-chloro-1-[(4-ethoxy-3-methoxy-phenyl)sulfonyl]-3-(2-fluorophenyl)-6-methoxy-1,3-dihydro-2H-indol-2-one], the melting point was 238 °C.

Turning to `COc1cccc(S(=O)(=O)N2C(=O)C(CCCN3CCN(C)CC3)(c3ccccc3F)c3cc(Cl)c(OC)cc32)c1` (stereo not shown) (as salt: HCl) [Compound No. 38], the melting point was determined as 147 °C.

In turn, `COc1cc2c(cc1Cl)C(CCCN1CCNCC1)(c1ccccc1F)C(=O)N2S(=O)(=O)c1ccc(O)cc1` (stereo not shown) (as salt: HCl) [Compound No. 46] registered a melting point of 292 °C.

The compound `COc1ccc(S(=O)(=O)N2C(=O)C(CCCN3CCNCC3)(c3ccccc3F)c3cc(Cl)c(OC)cc32)c(OC)c1` (stereo not shown) (as salt: HCl) [compound 16, 5-chloro-1-[(2,4-dimethoxyphenyl)sulfonyl]-3-(2-fluorophenyl)-6-methoxy-3-(3-(piperazin-1-yl)propyl)-1,3-dihydro-2H-indol-2-one] came in with a melting point of 243 °C.

The compound `CCOc1ccc(S(=O)(=O)N2C(=O)C(CCCN3CCNCC3)(c3ccccc3F)c3cc(Cl)c(OC)cc32)cc1OC` (stereo not shown) (as salt: HCl) [compound 18, 5-chloro-1-[(4-ethoxy-3-methoxyphenyl)sulfonyl]-3-(2-fluorophenyl)-6-methoxy-3-(3-(piperazin-1-yl)propyl)-1,3-dihydro-2H-indol-2-one] yielded a melting point of 220 °C.

Compound `COc1cc2c(cc1Cl)C(CCCN1CCNCC1)(c1ccccc1F)C(=O)N2S(=O)(=O)c1ccc(OC)c(OC)c1` (stereo not shown) (as salt: HCl) [compound 19, 5-chloro-1-[(3,4-dimethoxyphenyl)sulfonyl]-3-(2-fluorophenyl)-6-methoxy-3-(3-(piperazin-1-yl)propyl)-1,3-dihydro-2H-indol-2-one] registered a melting point of 190 °C.

Consider `COc1cc2c(cc1Cl)C(CCCN1CCNCC1)(c1ccccc1F)C(=O)N2S(=O)(=O)c1ccc(C)c(C)c1` (stereo not shown) (as salt: HCl) [compound 20, 5-chloro-1-[(3,4-dimethylphenyl)sulfonyl]-3-(2-fluorophenyl)-6-methoxy-3-(3-(piperazin-1-yl)propyl)-1,3-dihydro-2H-indol-2-one], for which the melting point amounted to 192 °C.

With `COc1ccc(S(=O)(=O)N2C(=O)C(CCCN3CCNCC3)(c3ccccc3F)c3cc(Cl)c(OC)cc32)cc1C` (stereo not shown) (as salt: HCl) [compound 21, 5-chloro-3-(2-fluorophenyl)-6-methoxy-1-[(4-methoxy-3-methylphenyl)sulfonyl]-3-(3-(piperazin-1-yl)propyl)-1,3-dihydro-2H-indol-2-one], the melting point turned out to be 234 °C.

In turn, `CCOc1ccc(S(=O)(=O)N2C(=O)C(CCCN3CCNCC3)(c3ccccc3F)c3cc(Cl)c(OC)cc32)cc1` (stereo not shown) (as salt: HCl) [compound 22, 5-chloro-1-[(4-ethoxyphenyl)sulfonyl]-3-(2-fluorophenyl)-6-methoxy-3-(3-(piperazin-1-yl)propyl)-1,3-dihydro-2H-indol-2-one] returned a melting point of 213 °C.

Take `CCOc1ccc(S(=O)(=O)N2C(=O)C(CCCN3CCNCC3)(c3ccccc3F)c3cc(Cl)c(OC)cc32)cc1C` (stereo not shown) (as salt: HCl) [compound 23, 5-chloro-1-[(4-ethoxy-3-methylphenyl)sulfonyl]-3-(2-fluorophenyl)-6-methoxy-3-(3-(piperazin-1-yl)propyl)-1,3-dihydro-2H-indol-2-one]: the melting point came to 226 °C.

`COc1cc2c(cc1Cl)C(CCCN1CCNCC1)(c1ccccc1F)C(=O)N2S(=O)(=O)c1ccc(OC(F)F)cc1` (stereo not shown) (as salt: HCl) [compound 24, 5-chloro-1-{[4-(difluoromethoxy)phenyl]sulfonyl}-3-(2-fluorophenyl)-6-methoxy-3-(3-(piperazin-1-yl)propyl)-1,3-dihydro-2H-indol-2-one] returned a melting point of 218 °C.

`COc1cc2c(cc1Cl)C(CCCN1CCNCC1)(c1ccccc1F)C(=O)N2S(=O)(=O)c1ccc(OC(F)(F)F)cc1` (stereo not shown) (as salt: HCl) [compound 25, 5-chloro-3-(2-fluorophenyl)-6-methoxy-3-(3-(piperazin-1-yl)propyl)-1-{[4-(tri-fluoromethoxy)phenyl]sulfonyl}-1,3-dihydro-2H-indol-2-one]: the melting point amounted to 220 °C.

Compound `COc1cc2c(cc1Cl)C(CCCN1CCNCC1)(c1ccccc1F)C(=O)N2S(=O)(=O)c1ccccc1` (stereo not shown) (as salt: HCl) [compound 26, 5-chloro-3-(2-fluorophenyl)-6-methoxy-1-(phenylsulfonyl)-3-(3-(piperazin-1-yl)propyl)-1,3-dihydro-2H-indol-2-one] displayed a melting point of 238 °C.

`COc1ccc(S(=O)(=O)N2C(=O)C(CCCN3CCNCC3)(c3ccccc3F)c3cc(F)c(OC)cc32)cc1C` (stereo not shown) (as salt: HCl) [compound 107] yielded a melting point of 152 °C.

In turn, `COc1ccc(S(=O)(=O)N2C(=O)C(CCCN3CCNCC3)(c3ccccc3F)c3cc(OC)c(OC)cc32)cc1C` (stereo not shown) (as salt: HCl) [compound 108] yielded a melting point of 160 °C.

In turn, `COc1ccc(S(=O)(=O)N2C(=O)C(CCCC3CCNCC3)(c3ccccc3F)c3cc(Cl)c(OC)cc32)c(OC)c1.Cl` (stereo not shown) [Compound No. 1] had a melting point of 163 °C.

`COc1ccc(S(=O)(=O)N2C(=O)C(CCCC3CCNCC3)(c3ccccc3F)c3cc(Cl)c(OC)cc32)c(OC)c1.Cl` (stereo not shown) [Compound No. 2]: the melting point turned out to be 175 °C.

For `CCOc1ccc(S(=O)(=O)N2C(=O)C(CCCN3CCC(F)(F)CC3)(c3ccccc3F)c3cc(Cl)c(OC)cc32)cc1OC` (stereo not shown) [compound 9, 5-chloro-3-[3-(4,4-difluoropiperidin-1-yl)propyl]-1-[(4-ethoxy-3-methoxy-phenyl)sulfonyl]-3-(2-fluorophenyl)-6-methoxy-1,3-dihydro-2H-indol-2-one], the melting point is 88 °C.

As a reminder, the melting point is the temperature, or range, at which the solid turns liquid.
